# Measurements published in PMC10202811 (Nature Medicine, 2023).
# “And” between values parts separate entries of the source, which are not always exact repeats. Equal values may be shown once. Read-outs that look alike come from different tables or passages of the source.
# Test: Plasma pharmacokinetics of lorlatinib at steady state (LC-MS/MS, non-compartmental analysis)
# Assay type: in vivo, human
# Parameters: Vz_F / Cmax_D / AUMClast / AUMC_TAU: unit not given here
# Settings: for Tlag: unit assumed
# Source text: Lorlatinib was isolated from human plasma by a liquid-iquid extraction procedure. […] A linear-log trapezoidal method was used [NT] A best-fit method was used to estimate terminal elimination and to extrapolate any plasma concentration versus time profiles to compute [NT].
# [1] = Cycle 1 Day 1, Cohort B2, 115 mg/m2 per dose
# [2] = Cycle 1 Day 1, Cohort A1, 45 mg/m2 per dose, individual patients
# [3] = Cycle 1 Day 1, Cohort A1, 60 mg/m2 per dose, individual patients
# [4] = Cycle 1 Day 1, Cohort A1, 75 mg/m2 per dose, individual patients
# [5] = Cycle 1 Day 1, Cohort A1, 95 mg/m2 per dose, individual patients
# [6] = Cycle 1 Day 1, Cohort A1, 115 mg/m2 per dose, individual patients
# [7] = Cycle 1 Day 1, Cohort A2, 100 mg per dose, individual patients
# [8] = Cycle 1 Day 1, Cohort A2, 150 mg per dose, individual patients
# [9] = Cycle 1 Day 1, Cohort A2, 150 mg per dose, individual patients, in ng/mL
# [10] = Cycle 1 Day 1, Cohort A2, 150 mg per dose, individual patients, in ng·h/mL (unit assumed)
# [11] = Cycle 1 Day 1, Cohort A2, 150 mg per dose, individual patients, listed as lorlatinib, in h (unit assumed)
# [12] = Cycle 1 Day 1, patient N0773, Cohort B2, 115 mg/m2 per dose, Dose 75
# [13] = Cycle 1 Day 15, Cohort A1, 95 mg/m2 per dose
# [14] = Cycle 1 Day 15, Cohort A1, 95 mg/m2 per dose, in h (unit assumed)
# [15] = Cycle 1 Day 15, Cohort A1, 115 mg/m2 per dose
# [16] = Cycle 1 Day 15, Cohort A2, 150 mg per dose
# [17] = Cycle 1 Day 15, Cohort A2, 150 mg per dose, in h (unit assumed)
# [18] = Cycle 1 Day 15, Cohort A2, 150 mg per dose, in ng·h/mL (unit assumed)
# [19] = Cycle 1 Day 15, Cohort B2, 95 mg/m2 per dose
# [20] = Cycle 1 Day 15, Cohort B2, 95 mg/m2 per dose, in h (unit assumed)
# [21] = Cycle 1 Day 15, Cohort B2, 95 mg/m2 per dose, in ng/mL
# [22] = Cycle 1 Day 15, Cohort B2, 95 mg/m2 per dose, in ng·h/mL (unit assumed)
# [23] = Cycle 1 Day 15, Cohort B2, 115 mg/m2 per dose
# [24] = Cycle 1 Day 15, Cohort A1, 45 mg/m2 per dose, individual patients
# [25] = Cycle 1 Day 15, Cohort A1, 45 mg/m2 per dose, individual patients, in h (unit assumed)
# [26] = Cycle 1 Day 15, Cohort A1, 60 mg/m2 per dose, individual patients
# [27] = Cycle 1 Day 15, Cohort A1, 60 mg/m2 per dose, individual patients, in h (unit assumed)
# [28] = Cycle 1 Day 15, Cohort A1, 75 mg/m2 per dose, individual patients
# [29] = Cycle 1 Day 15, Cohort A1, 75 mg/m2 per dose, individual patients, in h (unit assumed)
# [30] = Cycle 1 Day 15, Cohort A1, 75 mg/m2 per dose, individual patients, in ng·h/mL (unit assumed)
# [31] = Cycle 1 Day 15, Cohort A1, 95 mg/m2 per dose, individual patients
# [32] = Cycle 1 Day 15, Cohort A1, 95 mg/m2 per dose, individual patients, in h (unit assumed)
# [33] = Cycle 1 Day 15, Cohort A1, 115 mg/m2 per dose, individual patients
structure (smiles),measurement,setting,value
"C[C@H]1Oc2cc(cnc2N)-c2c(nn(C)c2C#N)CN(C)C(=O)c2ccc(F)cc21 [Lorlatinib, (10R)-7-amino-12-fluoro-2,10,16-trimethyl-15-oxo-10,15,16,17-tetrahydro-2H-8,4-(metheno)pyrazolo[4,3-h][2,5,11]-benzoxadiazacyclotetradecine-3-carbonitrile]",Tlag,"Cycle 1 Day 1, Cohort A2, 150 mg per dose",0 h
same,Tlag,"Cycle 1 Day 1, Cohort B2, 95 mg/m2 per dose",0 h
same,Tlast,[1],24 h
same,Tmax,"Cycle 1 Day 1, Cohort B2, 115 mg/m2 per dose, in h (unit assumed)",1
same,Tmax,"Cycle 1 Day 1, Cohort B2, 115 mg/m2 per dose, listed as lorlatinib, in h (unit assumed)",2
same,Tlag,[1],0 h
same,Tlast,[2],24 h
same,Tmax,"Cycle 1 Day 1, Cohort A1, 45 mg/m2 per dose, individual patients, in h (unit assumed)",2
same,Tlag,[2],0 h
same,Tlast,[3],24 h
same,Tlag,[3],0 h
same,Tlast,[4],24 h
same,Tmax,"Cycle 1 Day 1, Cohort A1, 75 mg/m2 per dose, individual patients, in h (unit assumed)",2
same,Cmax,"Cycle 1 Day 1, Cohort A1, 75 mg/m2 per dose, individual patients, in ng/mL",779
same,Tlag,[4],0 h
same,Tlast,[5],24 h
same,Tlag,[5],0 h
same,AUMClast,[6],125336.7763
same,Cmax_D,[6],11.08
same,Tlast,[6],24 h
same,Clast,"Cycle 1 Day 1, Cohort A1, 115 mg/m2 per dose, individual patients, in ng/mL",172
same,Tlag,[6],0 h
same,Tlast,[7],24 h
same,Tmax,"Cycle 1 Day 1, Cohort A2, 100 mg per dose, individual patients, in h (unit assumed)",2
same,Tlag,[7],0 h
same,AUMClast,[8],49463.3786 and 88733.21472 and 92632.60987
same,Cmax_D,[8],3.76 and 5.527 and 7.067
same,Tlast,[8],24 h
same,Tmax,"Cycle 1 Day 1, Cohort A2, 150 mg per dose, individual patients, in h (unit assumed)",2
same,Clast,[9],70.8 and 151 and 127
same,Cmax,[9],829 and 1060
same,AUCall,[10],9320 and 11097.69267
same,AUClast,[10],9320 and 11097.69267
same,MRTlast,[11],9.52 and 8.347
same,Tmax,[11],2
same,Tlag,[8],0 h
same,AUMClast,[12],89144.88493
same,Cmax_D,[12],22.13
same,Tlast,[12],24 h
same,Tlag,[12],0 h
same,AUC_TAU_%Extrap,[13],0%
same,Tlast,[13],24 h
same,Tmax,[14],1
same,Tmin,[14],0
same,Cavg,"Cycle 1 Day 15, Cohort A1, 95 mg/m2 per dose, in ng/mL",288.1
same,Tlag,[13],0 h
same,AUC_TAU_%Extrap,[15],0%
same,Tlast,[15],24 h
same,Tmin,"Cycle 1 Day 15, Cohort A1, 115 mg/m2 per dose, in h (unit assumed)",0
same,Tlag,[15],0 h
same,AUC_TAU_%Extrap,[16],0%
same,AUMC_TAU,[16],48864.79941 and 48509.22474 and 72138.31531 and 51031.1075 and 68396.67554 and 68306.96584 and 82226.35285
same,Accumulation_Index,[16],1.404 and 1.221 and 1.584 and 1.215 and 1.756 and 1.451 and 1.861
same,CLss_F,[16],30.01 and 26.36 and 19.5 and 22.81 and 21.08 and 21.41 and 18.08
same,Tlast,[16],24 h
same,Vz_F,[16],578.5 and 370.3 and 469.1 and 316.3 and 600.6 and 439.8 and 562.8
same,Tmax,[17],1
same,Tmin,[17],0
same,Cavg,"Cycle 1 Day 15, Cohort A2, 150 mg per dose, in ng/mL",208.3 and 237.1 and 320.6 and 274 and 296.5 and 291.9 and 345.7
same,AUC_TAU,[18],5690 and 7694 and 6577 and 7116 and 7005
same,AUCall,[18],5690 and 7694 and 6577 and 7116 and 7005
same,AUClast,[18],5690 and 7694 and 6577 and 7116 and 7005 and 8297
same,Tmax,"Cycle 1 Day 15, Cohort A2, 150 mg per dose, read-out: Tmax",1 h (4×) and 2 h
same,Tlag,[16],0 h
same,AUC_%Extrap_obs,[19],3.629%
same,AUC_%Extrap_pred,[19],3.558%
same,AUC_TAU_%Extrap,[19],0%
same,Accumulation_Index,[19],1.029
same,Tlast,[19],24 h
same,Vz_F,[19],73.35
same,HL_Lambda_z,[20],4.68
same,Tmax,[20],2
same,Tmin,[20],0
same,Lambda_z,"Cycle 1 Day 15, Cohort B2, 95 mg/m2 per dose, in h-1 (unit assumed)",0.1481
same,Clast_pred,[21],30.18
same,Cmax,[21],721
same,AUC_TAU,[22],5523
same,AUCall,[22],5523
same,AUClast,[22],5523
same,Tlag,[19],0 h
same,AUC_TAU_%Extrap,[23],0%
same,Tlast,[23],24 h
same,Tmax,"Cycle 1 Day 15, Cohort B2, 115 mg/m2 per dose, in h (unit assumed)",1
same,Tmax,"Cycle 1 Day 15, Cohort B2, 115 mg/m2 per dose, listed as lorlatinib, in h (unit assumed)",2
same,Tlag,[23],0 h
same,AUC_TAU_%Extrap,[24],0%
same,Tlast,[24],24 h
same,Vz_F,[24],335.3
same,Tmax,[25],2
same,Tmin,[25],0
same,Tlag,[24],0 h
same,AUC_TAU_%Extrap,[26],0%
same,Tlast,[26],24 h
same,Tmax,[27],2
same,Tmin,[27],0
same,Cmax,"Cycle 1 Day 15, Cohort A1, 60 mg/m2 per dose, individual patients, in ng/mL",343
same,Tlag,[26],0 h
same,AUC_TAU_%Extrap,[28],0%
same,Tlast,[28],24 h
same,MRTINF_obs,[29],9.338
same,MRTINF_pred,[29],9.311
same,Tmin,[29],0
same,AUCINF_obs,[30],3021
same,AUCINF_pred,[30],3018
same,Tlag,[28],0 h
same,AUC_TAU_%Extrap,[31],0%
same,Tlast,[31],24 h
same,MRTINF_obs,[32],11.95
same,MRTINF_pred,[32],11.86
same,Tmax,[32],2
same,Tmin,[32],0
same,Tlag,[31],0 h
same,AUC_%Extrap_obs,[33],23.66%
same,AUC_%Extrap_pred,[33],23.4%
same,AUC_TAU_%Extrap,[33],0%
same,AUMC_TAU,[33],68314.30452
same,Accumulation_Index,[33],1.333
same,CLss_F,[33],15.84
same,Cmax_D,[33],10.38
same,Fluctuation%,[33],351.8%
same,Fluctuation%_Tau,[33],351.8%
